In patent publication US6300359A, “(E)-3-[1-n-Butyl-5-[2-(2-carboxyphenyl)methoxy-4-chlorophenyl]-1H-pyrazol-4 -yl]-2-[(5-methoxy-2,3-dihydrobenzofuran-6-yl)methyl]-prop-2-enoic acid monoargininyl salt” (SmithKline Beecham Corporation, priority 2000, dated 2001):
“Also recorded” adds a separate entry of the source. Where a name gives a salt, the structure may show the parent alone. Read-outs that look alike come from different tables or passages of the source.

Columns and labels:
[1] = Enterohepatic extraction ratio and theoretical maximum oral bioavailability; assay type: in vivo; conditions: dogs
[2] = Hygroscopicity study (moisture uptake, dynamic vapor sorption analyzer); assay type: physicochemical; conditions: for % Moisture Uptake: percentage weight gain
Text: ^a Measured on a dynamic vapor sorption analyzer as percentage weight

[3] = Bioavailability study in dogs (oral capsule formulations; intraduodenal non-aqueous solution); assay type: in vivo, male beagle dogs; conditions: for bioavailability: plasma
[4] = Aqueous solubility under acidic conditions; assay type: physicochemical; conditions: water, pH<5.34
Procedure: The aqueous solubility of the diacid of the compound of Formula (I) is very limited under acidic conditions. The solubility is less than 0.1 ug/mL at pH<5.34.

[5] = Accelerated stability studies; assay type: physicochemical; conditions: stored at 50° C.

Compound: CCCCn1ncc(/C=C(\Cc2cc3c(cc2OC)CCO3)C(=O)O)c1-c1ccc(Cl)cc1OCc1ccccc1C(=O)O [Diacid, (E)-3-[1-n-Butyl-5-[2-(2-carboxyphenyl)methoxy-4-chlorophenyl]-1H-pyrazol-4-yl]-2-[(5-methoxy-2,3-dihydrobenzofuran-6-yl)methyl]-prop-2-enoic acid]
- hepatic extraction ratio ([1]; dog, in vivo): 0.82
- theoretical maximum value of oral bioavailability ([1]; from enterohepatic extraction ratio): 18%
- % Moisture Uptake ([2]; 0% relative humidity): 0%
- % Moisture Uptake ([2]; 10% relative humidity): 0.077%
- % Moisture Uptake ([2]; 20% relative humidity): 0.088%
- % Moisture Uptake ([2]; 30% relative humidity): 0.126%
- % Moisture Uptake ([2]; 40% relative humidity): 0.184%
- % Moisture Uptake ([2]; 50% relative humidity): 0.245%
- % Moisture Uptake ([2]; 60% relative humidity): 0.316%
- % Moisture Uptake ([2]; 70% relative humidity): 0.395%
- % Moisture Uptake ([2]; 80% relative humidity): 0.509%
- % Moisture Uptake ([2]; 90% relative humidity): 0.518%
- bioavailability ([3]; dog, po, 10 mg/kg, dogs, oral dosing of a simple capsule formulation, read-out: oral bioavailability): 3.9%
- bioavailability ([3]; dog, po, dog, oral capsule with 0.5% Tween 80 & 2 MEq NMG (also some microcrystalline cellulose, lactose, starch), read-out: Mean % Oral Bioavailability ± SD): 6.3 ± 5.3%
- bioavailability ([3]; dog, po, dog, oral capsule with 0.5% Tween 80 (also some microcrystalline cellulose, lactose, starch), read-out: Mean % Oral Bioavailability ± SD): 2.3 ± 3.7%
- solubility [4]: < 0.1 µg/mL

Compound: CCCCn1ncc(/C=C(\Cc2cc3c(cc2OC)CCO3)C(=O)O)c1-c1ccc(Cl)cc1OCc1ccccc1C(=O)O [Disodium Salt]
- % Moisture Uptake ([2]; 0% relative humidity): 0%
- % Moisture Uptake ([2]; 10% relative humidity): 1.849%
- % Moisture Uptake ([2]; 20% relative humidity): 2.838%
- % Moisture Uptake ([2]; 30% relative humidity): 3.821%
- % Moisture Uptake ([2]; 40% relative humidity): 5.013%
- % Moisture Uptake ([2]; 50% relative humidity): 6.773%
- % Moisture Uptake ([2]; 60% relative humidity): 10.188%
- % Moisture Uptake ([2]; 70% relative humidity): 15.919%
- % Moisture Uptake ([2]; 80% relative humidity): 22.472%
- % Moisture Uptake ([2]; 90% relative humidity): 33.671%
- bioavailability ([3]; dog, dog, non-aqueous solution (99% PEG 400, 1% DMSO) dosed intraduodenally, only 2 animals, read-out: Mean % Oral Bioavailability ± SD): 14.5%
- bioavailability ([3]; dog, po, dog, oral capsule (with microcrystalline cellulose as diluent), read-out: Mean % Oral Bioavailability ± SD): 6.2%

Compound: CCCCn1ncc(/C=C(\Cc2cc3c(cc2OC)CCO3)C(=O)O)c1-c1ccc(Cl)cc1OCc1ccccc1C(=O)O [Monoargininyl Salt, (E)-3-[1-n-Butyl-5-[2-(2-carboxyphenyl)methoxy-4-chlorophenyl]1H-pyrazol-4-yl]-2-[(5-methoxy-2,3-dihydrobenzofuran-6-yl)methyl]-prop-2-enoic Acid, Monoargininyl Salt]
- % Moisture Uptake ([2]; 0% relative humidity): 0%
- % Moisture Uptake ([2]; 10% relative humidity, listed as Monoarginine): 0.261%
- % Moisture Uptake ([2]; 20% relative humidity, listed as Monoarginine): 0.382%
- % Moisture Uptake ([2]; 30% relative humidity, listed as Monoarginine): 0.526%
- % Moisture Uptake ([2]; 40% relative humidity, listed as Monoarginine): 0.689%
- % Moisture Uptake ([2]; 50% relative humidity, listed as Monoarginine): 0.827%
- % Moisture Uptake ([2]; 60% relative humidity, listed as Monoarginine): 0.982%
- % Moisture Uptake ([2]; 70% relative humidity, listed as Monoarginine): 1.092%
- % Moisture Uptake ([2]; 80% relative humidity, listed as Monoarginine): 1.434%
- % Moisture Uptake ([2]; 90% relative humidity, listed as Monoarginine): 2.334%
- hygroscopicity (in words) ([2]; compared with diacid and amorphous disodium salt, listed as monoarginine salt): minimally hygroscopic; also recorded: slightly more hygroscopic than the diacid form; also recorded: considerably less hygroscopic than the amorphous disodium salt form
- moisture absorbed ([2]; relative humidity range of 0 to 90%): 2.3%
- Mean % Oral Bioavailability ± SD ([3]; dog, oral capsule (with microcrystalline cellulose as diluent), 10 mg/kg): 13.8 ± 7.6%
- bioavailability compared with other forms (in words) ([3]; dogs, vs disodium salt or dissolution-enhancing formulations of the diacid): increased bioavailability as compared to the disodium salt or dissolution-enhancing formulations of the diacid
- chemical stability [5]: chemically stable for at least three weeks
